Measured values taken from publication PMC6979384, “Characterization of the plant homeodomain (PHD) reader family for their histone tail interactions” (Epigenetics & Chromatin, 2020).

Tests used:
Test in all cases: Histone peptide microarray
Format in all cases: binding, human
AIRE (PP) = settings: GST-tagged AIRE (PP); histone peptide array; arrays performed twice, n of 4
Method in brief: (§1)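 GST-tagged PHD readers, 0.5 μM, probed on a microarray of 293 synthetic histone peptides carrying single or combinatorial PTMs (optimized Petell protocol). Signals are averaged over 4 replicates and expressed as relative binding.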

BAZ2B = settings: GST-tagged BAZ2B; histone peptide array; arrays performed twice, n of 4
Method in brief: as §1

BPTF (PB) = settings: GST-tagged BPTF (PB = PHD + Bromodomain); histone peptide array; arrays performed twice, n of 4
Method in brief: as §1

CHD4 (PPCC) = settings: GST-tagged CHD4 (PPCC = Dual PHD + Dual Chromodomain); histone peptide array; arrays performed twice, n of 4
Method in brief: as §1

CHD5 (PCC) = settings: GST-tagged CHD5 (PCC = PHD + Dual Chromodomain); histone peptide array; arrays performed twice, n of 4
Method in brief: as §1

CHD5 (PPCC) = settings: GST-tagged CHD5 (PPCC = Dual PHD + Dual Chromodomain); histone peptide array; arrays performed twice, n of 4
Method in brief: as §1

DIDO1 = settings: GST-tagged DIDO1; histone peptide array; arrays performed twice, n of 4
Method in brief: as §1

DPF2 (PPC2W2) = settings: GST-tagged DPF2 (PPC2W2 = Dual PHD + C2W2-type Zn-finger); histone peptide array; arrays performed twice, n of 4
Method in brief: as §1

ING1 = settings: GST-tagged ING1; histone peptide array; arrays performed twice, n of 4
Method in brief: as §1

ING2 = settings: GST-tagged ING2; histone peptide array; arrays performed twice, n of 4
Method in brief: as §1

ING3 = settings: GST-tagged ING3; histone peptide array; arrays performed twice, n of 4
Method in brief: as §1

ING4 = settings: GST-tagged ING4; histone peptide array; arrays performed twice, n of 4
Method in brief: as §1

ING5 = settings: GST-tagged ING5; histone peptide array; arrays performed twice, n of 4
Method in brief: as §1

KDM4C (TTP) = settings: GST-tagged KDM4C (TTP = Tandem Tudor domain + PHD); histone peptide array; arrays performed twice, n of 4
Method in brief: as §1

KDM5A (1) = settings: GST-tagged KDM5A (1); histone peptide array; arrays performed twice, n of 4
Method in brief: as §1

KDM5A (3) = settings: GST-tagged KDM5A (3); histone peptide array; arrays performed twice, n of 4
Method in brief: as §1

KDM5B (1) = settings: GST-tagged KDM5B (1); histone peptide array; arrays performed twice, n of 4
Method in brief: as §1

KDM5B (3) = settings: GST-tagged KDM5B (3); histone peptide array; arrays performed twice, n of 4
Method in brief: as §1

KDM7A = settings: GST-tagged KDM7A; histone peptide array; arrays performed twice, n of 4
Method in brief: as §1

MLL5 = settings: GST-tagged MLL5; histone peptide array; arrays performed twice, n of 4
Method in brief: as §1

MORC3 (CW) = settings: GST-tagged MORC3 (CW = CW-type Zn-finger); histone peptide array; arrays performed twice, n of 4
Method in brief: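 Each reader, produced as a GST fusion and purified, was tested at 0.5 μM on synthetic histone peptides (293 in total) carrying single or combinatorial marks. Intensities averaged over four replicates.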

PHF13 = settings: GST-tagged PHF13; histone peptide array; arrays performed twice, n of 4
Method in brief: as §1

PHF21A = settings: GST-tagged PHF21A; histone peptide array; arrays performed twice, n of 4
Method in brief: as §1

PHF23 = settings: GST-tagged PHF23; histone peptide array; arrays performed twice, n of 4
Method in brief: as §1

PHF2 = settings: GST-tagged PHF2; histone peptide array; arrays performed twice, n of 4
Method in brief: as §1

PHF8 = settings: GST-tagged PHF8; histone peptide array; arrays performed twice, n of 4
Method in brief: as §1

PHRF1 (RP) = settings: GST-tagged PHRF1 (RP); histone peptide array; arrays performed twice, n of 4
Method in brief: as §1

RAG2 = settings: GST-tagged RAG2; histone peptide array; arrays performed twice, n of 4
Method in brief: as §1

SP140L = settings: GST-tagged SP140L; histone peptide array; arrays performed twice, n of 4
Method in brief: as §1

TAF3 = settings: GST-tagged TAF3; histone peptide array; arrays performed twice, n of 4
Method in brief: as §1

TRIM66 (PB) = settings: GST-tagged TRIM66 (PB = PHD + Bromodomain); histone peptide array; arrays performed twice, n of 4
Method in brief: as §1

| Substance | Array Heatmap signal, AIRE (PP) (AIRE (PP)) | Array Heatmap signal, BAZ2B (BAZ2B) | Array Heatmap signal, BPTF (PB) (BPTF (PB)) | Array Heatmap signal, CHD4 (PPCC) (CHD4 (PPCC)) | Array Heatmap signal, CHD5 (PCC) (CHD5 (PCC)) | Array Heatmap signal, CHD5 (PPCC) (CHD5 (PPCC)) | Array Heatmap signal, DIDO1 (DIDO1) | Array Heatmap signal, DPF2 (PPC2W2) (DPF2 (PPC2W2)) | Array Heatmap signal, ING1 (ING1) | Array Heatmap signal, ING2 (ING2) | Array Heatmap signal, ING3 (ING3) | Array Heatmap signal, ING4 (ING4) | Array Heatmap signal, ING5 (ING5) | Array Heatmap signal, KDM4C (TTP) (KDM4C (TTP)) | Array Heatmap signal, KDM5A (1) (KDM5A (1)) | Array Heatmap signal, KDM5A (3) (KDM5A (3)) | Array Heatmap signal, KDM5B (1) (KDM5B (1)) | Array Heatmap signal, KDM5B (3) (KDM5B (3)) | Array Heatmap signal, KDM7A (KDM7A) | Array Heatmap signal, MLL5 (MLL5) | further results |
| --- | --- | --- | --- | --- | --- | --- | --- | --- | --- | --- | --- | --- | --- | --- | --- | --- | --- | --- | --- | --- | --- |
| H3R2me1 + K4me2: H3 1-20 | 0.3934 | 0.4449 | 0.3634 | 0.6115 | 0.8739 | 0.5419 | 0.7623 | 0.7133 | 0.6158 | 0.678 | 0.5383 | 0.4775 | 0.3522 | 0.4903 | 0.4465 | 0.6755 | 0.6024 | 0.6308 | 0.344 | 0.577 | Array Heatmap signal, MORC3 (CW) (MORC3 (CW)): 0.6321; Array Heatmap signal, PHF13 (PHF13): 0.6859; Array Heatmap signal, PHF21A (PHF21A): 0.4826; Array Heatmap signal, PHF23 (PHF23): 0.6929; Array Heatmap signal, PHF2 (PHF2): 0.6699; Array Heatmap signal, PHF8 (PHF8): 0.4684; Array Heatmap signal, PHRF1 (RP) (PHRF1 (RP)): 0.5537; Array Heatmap signal, RAG2 (RAG2): 0.5456; Array Heatmap signal, SP140L (SP140L): 0.3804; Array Heatmap signal, TAF3 (TAF3): 0.4954; Array Heatmap signal, TRIM66 (PB) (TRIM66 (PB)): 0.6589 |
| H3R2me1 + K4me3 + K9ac + K14ac + K18ac: H3 1-20 | 0.4342 | 0.5242 | 0.497 | 0.5338 | 0.7637 | 0.5534 | 0.9369 | 0.7016 | 0.6321 | 0.7542 | 0.5459 | 0.4735 | 0.3861 | 0.6022 | 0.4772 | 1 | 0.6999 | 0.6033 | 0.4977 | 0.7798 | Array Heatmap signal, MORC3 (CW) (MORC3 (CW)): 0.7963; Array Heatmap signal, PHF13 (PHF13): 0.6575; Array Heatmap signal, PHF21A (PHF21A): 0.4576; Array Heatmap signal, PHF23 (PHF23): 0.7743; Array Heatmap signal, PHF2 (PHF2): 0.7659; Array Heatmap signal, PHF8 (PHF8): 0.711; Array Heatmap signal, PHRF1 (RP) (PHRF1 (RP)): 0.4594; Array Heatmap signal, RAG2 (RAG2): 0.5848; Array Heatmap signal, SP140L (SP140L): 0.3363; Array Heatmap signal, TAF3 (TAF3): 0.3972; Array Heatmap signal, TRIM66 (PB) (TRIM66 (PB)): 0.5379 |
| H3R2me1 + K4me3: H3 1-20 | 0.5251 | 0.4816 | 0.4045 | 0.5344 | 0.789 | 0.5498 | 0.7532 | 0.645 | 0.6223 | 0.6934 | 0.5249 | 0.4768 | 0.3615 | 0.6626 | 0.4891 | 0.7567 | 0.7101 | 0.6417 | 0.6442 | 0.6848 | Array Heatmap signal, MORC3 (CW) (MORC3 (CW)): 0.559; Array Heatmap signal, PHF13 (PHF13): 0.6851; Array Heatmap signal, PHF21A (PHF21A): 0.4726; Array Heatmap signal, PHF23 (PHF23): 0.6587; Array Heatmap signal, PHF2 (PHF2): 0.6232; Array Heatmap signal, PHF8 (PHF8): 0.5511; Array Heatmap signal, PHRF1 (RP) (PHRF1 (RP)): 0.4461; Array Heatmap signal, RAG2 (RAG2): 0.5131; Array Heatmap signal, SP140L (SP140L): 0.3558; Array Heatmap signal, TAF3 (TAF3): 0.4375; Array Heatmap signal, TRIM66 (PB) (TRIM66 (PB)): 0.573 |
